Measurements: patent publication US20230003721A1, “MITOTHERAPEUTICS FOR THE TREATMENT OF BRAIN DISORDERS” (The University of Florida Research Foundation, Inc., priority 2019, published 2023)
Where a name gives a salt, the structure may show the parent alone.

Legend:
primary neurons [1] = assay: TMRM fluorescence assay of inner mitochondrial membrane potential (ΔΨm); details: for Emax / EC50: Mus musculus, Primary neuron; for Emax: read-out: TMRM (Effect-size); for EC50: read-out: TMRM-EC50; for TMRM Primary: primary screen; for TMRM Primary / TMRM Rescreen: 24 h
primary neurons [2] = assay: CellTiter-Glo luminescence-based ATP assay; type: cell-based, mouse; details: for ATP: ATP orthogonal screen, 24 h; for EC50 / Emax: Mus musculus, Primary neuron, dose response; for EC50: 15 concentrations from 6 nM to 100 uM; for Emax: maximal percent increase relative to in-plate DMSO controls, read-out: ATP (Effect-size)
Outline: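 Primary neurons treated from DIV13 for 24 h with compound or DMSO. After part of the medium was removed, CellTiter-Glo reagent was added; plates were shaken 10 min at 200 rpm, kept 2 min in the dark at room temperature, and luminescence read as total ATP.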

primary neurons [3] = assay: Mitochondrial morphology and neurite area after functional modulators; type: cell-based, mouse; set-up: key to Neurite Area: non-significant (n.s.); details: significant change
Method: Mitochondrial morphology and neurite area measurements. Mitochondrial morphology and neurite area were quantified using methods described by Varkuti et al, 2020. Briefly, Cre-dependent mitochondrial targeted GFP2 (mito-GFP) ROSA26 knock-in mice were crossed with Ai14 (007908, The Jackson Laboratory) expressing cytosolic-tdTomato, and the forebrain of P0 pups were isolated and primary neurons were cultured as described above. AAV9 virus containing the iCRE sequence driven by the neuron specific CaMKII promoter was added to the cell culture at plating and 75% of the media replaced 4 h after plating. […] Z-projected images of the green channel were preprocessed (background subtraction: rolling ball, radius=3; median filtering: radius=1) and somatic mitochondria were removed (see details in Varkuti et al, Science Advances 6 (2020) eaaw8702). Red channel images were also preprocessed (tubeness filter, soma removal). Preprocessed images were segmented by GE Developer software (object-based, kernel size: 3). […] The length and circularity measurements for mitochondria were aggregated using the median and the area for neurites using the sum. After removing empty fields and outlier values from the fields, aggregated field values were averaged to well values (4 fields/well, 12 wells/compound). Robust Z-scores were calculated using DMSO-treated wells for each well ((mediancompound−medianDMSO)/median absolute deviationDMSO), well values were averaged for each compound.
A high-content assay was developed in parallel to monitor aspects of mitochondrial dynamics in primary cultured neurons that conditionally express (Cre recombinase dependent) mitochondrial-tagged GFP and cytosolic tdTomato reporters (Varkuti et al., 2020). We monitored two aspects of neuritic mitochondrial dynamics: (1) the health of mitochondria as measured by the average circularity of axonal mitochondria, since defective mitochondria targeted for mitophagy become circular in shape, and (2) the balance between fission/fusion measured by the average length of dendritic mitochondria. […] FIG. 19A illustrates the results of surveying a collection of functional modulators selected from 5 different structural clusters (FIG. 17), quantified as robust z-scores relative to DMSO-treated control neurons.

[4] = test system: primary forebrain neurons; assay: cells; details: 12.5 μM; for Dendritic Mt CA / Neurite Area: rescreen, 24 h, vs DMSO wells
Method: Primary forebrain cell culture and maintenance. Forebrains of P0 Mt or Mt/Ai14 pups without olfactory bulbs and meninges were collected and placed in ice cold Ca^2+ and Mg^2+ free HBSS supplemented with 2 μg/ml gentamicin, 25 mM D-glucose, 1 mM pyruvate and 20 mM HEPES. Brain tissue was digested with 0.6 mg/ml papain at 37° C. for 20 min. Forebrains were washed with plating media [Neurobasal (Gibco), 5% FBS, 4 mM GlutaMAX (Gibco), 2 μg/ml gentamicin]. The tissue was gently triturated, allowed to settle and the supernatant was filtered through a 40 μm mesh-sized cell strainer. Cells were centrifuged at 420×g for 4 min and resuspended in plating media. 15,000 cells per well were plated with 2×10^8 viral particles/ml onto black Greiner μClear (Cat #781946) or Ultra-Low Base Aurora with evaporation barrier (Cat #ABE201201B) 384-well plates (80 μl/well) pre-coated with poly-D-lysine for the primary screen and rescreen, respectively. Plating and media changes were performed using an automated Biomek FX^P liquid handling workstation. Four hr after plating, 75% of the plating media was replaced by feeding media [Neurobasal-A (Gibco), 4 mM GlutaMAX (Gibco), 2 μg/ml gentamicin, 2% B27 (Gibco)]. At DIV4, 50% of the media was exchanged with fresh feeding media supplemented with 16 μM 5-Fluoro-2′-deoxyuridine (FUdR) to prevent glial cell over-growth. At DIV8 and DIV12, additional 50% media changes were made without FUdR. Cells were maintained at 37° C. and 5% CO2; plates were topped with Breathe-Easy adhesive membranes (Greiner plates) to minimize evaporation.
Compounds and compound transfer.
Imaging. Images were captured using a GE Incell 6000 system (60× objective, 0.95 NA, 16-bit images) equipped with environmental control (37° C., 5% CO2). Mt-GFP (green channel) was imaged by confocal imaging (3 slices, Δz=0.7 μm, aperture=1.0 AU, λexc=488 nm, λem=515-535 nm). Cyto-tdTomato (red channel) and MitoTracker Orange (red channel) were imaged using confocal mode (3 slices, Δz=0.7 μm, aperture=1.0 AU, λexc=561 nm, λem=569-641 nm, MitoTracker Orange) or with widefield mode (Cyto-tdTomato). TMRM imaged for the co-localization experiments with Mt-GFP was imaged using the confocal mode (3 slices, […] aperture=1.0, λexc=488, λem=569-641 nm). For the live-dead assay, primary neurons were imaged with a 20× (widefield mode, NA 0.45) objective using λexc=561 nm and λem=569-641 nm for the propidium iodide stained dead cells (red channel), and λexc=488 nm and λem=515-535 nm for the fluorescein diacetate stained live cells (green channel). 10 fields were collected from each well, and 4 wells were imaged/condition in the live-dead assay. For all other experiments, 4 fields/well were imaged unless otherwise stated.
Automated data analysis pipeline. Most experiments utilized only Mt-GFP; some utilized both Mt-GFP and Cyto-tdTomato. The Z-projected images were preprocessed using a custom Fiji macro. For preprocessing of Mt-GFP images: background was subtracted (rolling ball, radius=3), images were median filtered (radius=1) and somatic mitochondria were removed. For removal of the somatic mitochondria, they were first segmented and then a somatic mitochondrial mask overlaid on the image.

| Compound | TMRM Primary (primary neurons [1]; 12.5 μM) [Z-scores] | TMRM Rescreen (primary neurons [1]) [Z-scores] | ATP (primary neurons [2]) [Z-scores] | Dendritic Mt CA [4] [robust Z-scores] | Neurite Area [4] [robust Z-scores] | other results |
| --- | --- | --- | --- | --- | --- | --- |
| CCCCOc1cc(C(=O)OCCN(CC)CC)ccc1N [benoxinate hydrochloride] | 3.62 | 6.64 | 5.57 |  |  | Emax (primary neurons [1]): 21%; EC50 (primary neurons [1]): 0.49 µM; EC50 (primary neurons [2]): 0.08 µM; Emax (primary neurons [2]): 21.4%; Mitochondrial Morphology (primary neurons [3]): elongated; Neurite Area (primary neurons [3]): n.s. |
| OC(CCN1CCCCC1)(c1ccccc1)c1ccccc1 [PRIDINOL METHANESULFONATE] | 5.88 | 6.92 | 5.46 | 2.86 | 1.80 | Emax (primary neurons [1]): 20.6%; EC50 (primary neurons [1]): 3.9 µM; EC50 (primary neurons [2]): 1.65 µM; Emax (primary neurons [2]): 15.7% |
| COC(=O)C[C@H]1C(C)(C)[C@@H](OC(C)=O)[C@@H]2CC3C4CC(=O)O[C@@H](c5ccoc5)[C@]4(C)CCC3[C@@]1(C)C2=O (some centres unmarked) [DIHYDROFISSINOLIDE] | 3.94 | 4.61 | 5.15 | 2.77 | 4.24 |  |
| CCCCCCOc1ccccc1C(N)=O [EXALAMIDE] | 3.39 | 4.57 | 6.10 | 2.43 | 3.42 |  |
| Cc1ccc([C@@H]2O[C@H](CO)[C@@H](O)[C@H](O)[C@H]2O)cc1Cc1ccc(-c2ccc(F)cc2)s1 [CANAGLIFLOZIN] | 4.55 | 6.36 | 3.13 | 2.93 | 0.74 |  |
| Clc1ccc(Cn2c(CN3CCCC3)nc3ccccc32)cc1 [CLEMIZOLE HYDROCHLORIDE] | 3.54 | 5.90 | 4.16 | 2.54 | −0.66 |  |
| CCN(CC)CCOCCOC(=O)C(CC)(CC)c1ccccc1.O=C(O)CC(O)(CC(=O)O)C(=O)O [OXELAIDIN CITRATE] | 4.27 | 6.44 | 2.73 | 2.59 | −1.31 |  |
| CN1CCN(C(c2ccccc2)c2ccccc2)CC1 [CYCLIZINE] | 3.41 | 5.91 | 5.18 | 2.82 | −0.03 |  |
| AVOCATIN A |  |  |  | 4.14 | 3.48 |  |
| CC[C@@]1(O)C(=O)OCc2c1cc1n(c2=O)Cc2cc3cc(O)ccc3nc2-1 [10-HYDROXYCAMPTOTHECIN] |  |  |  | 2.23 | 2.29 |  |
| C#CCN(C)Cc1ccccc1 [PARGYLINE HYDROCHLORIDE] |  |  |  | 3.75 | 2.51 |  |
| Cc1ccc(-c2cc(C(F)(F)F)nn2-c2ccc(S(N)(=O)=O)cc2)cc1 [celecoxib] | 6.67 | 4.72 | 7.57 |  |  | hit in TMRM primary screen when assayed at 4 h (primary neurons [1]; 12.5 μM, 4 h): celecoxib*; Emax (primary neurons [1]): 27.5%; EC50 (primary neurons [1]): 5.18 µM; EC50 (primary neurons [2]): 0.49 µM; Emax (primary neurons [2]): 20.7%; Neurite Area (primary neurons [3]): n.s. |
| COc1ccc(/C=C/c2cc(O)cc(O)c2)cc1 [RESVERATROL 4′-METHYL ETHER] |  |  |  | 3.68 | 0.02 | confirmation in the re-screen ([4]; 10 replicate plates): weak hits |
| COc1cc(OC)c2c(c1)O[C@H](c1ccc(OC)c(OC)c1)[C@@H](O)C2 |  |  |  | 2.44 | 1.87 |  |
| Nc1nnc(-c2cccc(Cl)c2Cl)c(N)n1 [LAMOTRIGINE] |  |  |  | 4.75 | 1.00 |  |
| O=C(/C=C/c1ccccc1)c1ccc(O[C@@H]2O[C@H](CO)[C@@H](O)[C@H](O)[C@H]2O)cc1O [2′,4′-DIHYDROXYCHALCONE 4′-GLUCOSIDE] |  |  |  | 4.44 | −0.18 |  |
| COc1ccc2c(c1O)-c1c(OC)c(OC)cc3c1[C@H](C2)N(C)CC3 [S-ISOCORYDINE (+)] |  |  |  | 2.82 | 0.78 |  |
| O=c1cc(-c2ccccc2)oc2ccc(O)cc12 [6-HYDROXYFLAVONE] |  |  |  | 2.88 | 0.69 |  |
| COc1ccc(CN(CCN(C)C)c2ccccn2)cc1 [PYRILAMINE MALEATE] |  |  |  | 2.65 | 0.78 |  |
| CN1CCC(=C2c3ccccc3Sc3ccccc32)CC1 [PIMETHIXENE MALEATE] | 3.95 | 5.12 | 4.56 | 2.57 | −2.10 |  |
